Reference: US7262170B2, “Pharmaceutical composition for reducing vaginal acidity and treatment of vaginitis, and the use thereof” (priority 1998, dated 2007)

Columns and labels:
Candida albicans = assay: Growth of Candida albicans in broths with or without Fluconazole, Gram-stained smears of cultured broths; type: cell-based; settings: 48 hours incubation, Fluconazole 0.005% in experiment tubes
Experimental: Broths: Four sterilized broths were prepared separately according to following formula: • A. Sucrose 0.25%, yeast extract powder 0.15%, glutamic acid 0.4%, aspartic acid 0.4%, isoleucine 0.4%, proline 0.4%, phenylalanine 0.4%, Fluconazole, 0.005%, distilled water, pH adjusted to 6.5 • B. Sucrose 0.25%, yeast extract powder 0.15%, glutamic acid 0.08%, aspartic acid 0.08%, isoleucine 0.08%, proline 0.08%, phenylalanine 0.08%, Fluconazole, 0.005%, distilled water, pH adjusted to 6.5 • C. Control-A broth: Sucrose 0.25%, yeast extract powder 0.15%, glutamic acid 0.4%, aspartic acid 0.4%, isoleucine 0.4%, proline 0.4%, phenylalanine 0.4%, distilled water, pH adjusted to 6.5 • D. Control-B broth: Sucrose 0.25%, yeast extract powder 0.15%, glutamic acid 0.08%, aspartic acid 0.08%, isoleucine 0.08%, proline 0.08%, phenylalanine 0.08%, distilled water, pH adjusted to 6.5 Lactobacillus suspensions: Two lactobacillus suspensions were prepared separately from each of the clinical isolated L. acidophilus and L. crispatus strains. Candida suspension: One Candida suspension was prepared from a clinically isolated Candida albicans strain. Grouping: two groups of tubes were divided and each group had four tubes, two experimental tubes and two control tubes. Group A contained 3 ml of A-broth and Group B contained 3 ml of B-broth. […]

fungal vaginitis = settings: anti-fungal drug alone; cited from earlier work

Row | Molecule | growth of Candida albicans / yeast-like organisms in cultured broths (Candida albicans) | curative rate (fungal vaginitis)
1 | OC(Cn1cncn1)(Cn1cncn1)c1ccc(F)cc1F [Fluconazole] | inhibited | –
2 | Mikostatin | – | 75-80%
